From publication PMC7531004, “Discovery of gramicidin A analogues with altered activities by multidimensional screening of a one-bead-one-compound library” (Nature Communications, 2020)
Where a SMILES comes first, the peptide text is derived from it. [ ]: non-standard residue; d: D form. The star is where a group is joined. NHCH2CH2OH = OCCN*; For = O=C*

Tests used:
[1] = cell viability/%
Method in brief: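 P388 cells at 1 × 10^4 cells/mL (final) were exposed to library peptides (stocks diluted 250-fold in RPMI1640/10% FBS) for 92 h at 37 °C, 5% CO2. Viable cells were counted by WST-1/1-methoxy PMS (4 h), absorbance 415 nm, and expressed as cell viability (%).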

[2] = tested on: Streptococcus pyogenes SSI-9; experiment: Antibacterial activity assay of bead-derived peptides (three concentrations); format: cell-based; design: key: +++: inhibition by the 640-fold diluted peptide solution; ++: inhibition by the 160-fold diluted solution; +: inhibition by the 40-fold diluted solution; -: no inhibition; conditions: S. pyogenes, bead-derived peptide solution, three concentrations
Method in brief: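 Library peptide stock applied undiluted, 4-fold and 16-fold diluted in DMSO to S. pyogenes SSI-9 (2 × 10^5 CFU) in cation-adjusted Mueller Hinton broth with 5% laked horse blood. After 18 h at 37 °C, growth judged by visible cell precipitation.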

[3] = H+/Na+ transport assay of bead-derived peptides (one-point); format: biochemical; design: key: relative activity; mean of two control wells = 1.00; conditions: bead-derived peptide solution, EYPC/EYPG LUVs;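 further: relative to parent gramicidin A activity set to 1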
Method in brief: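 H+/Na+ transport is monitored through pyranine fluorescence in freshly extruded LUVs after a 30-min room-temperature vortex with each library peptide at a single concentration. Signals are normalized to detergent (Triton X-100) and untreated controls.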

## CC(C)C[C@@H](NC(=O)[C@H](Cc1c[nH]c2ccccc12)NC(=O)[C@H](NC(=O)[C@H](Cc1c[nH]c2ccccc12)NC(=O)[C@H](NC(=O)[C@@H](NC(=O)[C@H](NC(=O)[C@H](C)NC(=O)[C@H](NC(=O)[C@H](C)NC(=O)CNC(=O)[C@@H](NC=O)C(C)C)C(C)C)C(C)C)C(C)C)C(C)C)[C@H](C)O)C(=O)N[C@@H](Cc1c[nH]c2ccccc12)C(=O)N[C@@H](C(=O)N[C@@H](Cc1c[nH]c2ccccc12)C(=O)NCCO)C(C)C [compound 2066] (For-VGA[dV]A[dV]V[dV]W[dT]W[dL]W[dV]W-NHCH2CH2OH)
[1]
  viability: 100%
[2]
  antibacterial activity: -
[3]
  H+/Na+ transport activity normalized against the value of 1 (1.00): 1.07

## CC(C)C[C@@H](NC(=O)[C@H](C)NC(=O)CNC(=O)[C@@H](NC=O)C(C)C)C(=O)N[C@@H](C)C(=O)N[C@H](CC(C)C)C(=O)N[C@H](C(=O)N[C@H](CC(C)C)C(=O)N[C@@H](Cc1c[nH]c2ccccc12)C(=O)N[C@H](CC(C)C)C(=O)N[C@@H](Cc1c[nH]c2ccccc12)C(=O)N[C@@H](C(=O)N[C@@H](Cc1c[nH]c2ccccc12)C(=O)N[C@@H](C(=O)N[C@@H](Cc1c[nH]c2ccccc12)C(=O)NCCO)C(C)C)[C@H](C)O)C(C)C [compound 2346] (For-VGA[dL]A[dL]V[dL]W[dL]W[dT]W[dV]W-NHCH2CH2OH)
[1]
  viability: 100%
[2]
  antibacterial activity: +
[3]
  H+/Na+ transport activity normalized against the value of 1 (1.00): 1.03

## CNC(=O)C[C@@H](NC(=O)[C@H](C)NC(=O)[C@@H](CC(C)C)NC(=O)[C@H](C)NC(=O)CNC(=O)[C@@H](NC=O)C(C)C)C(=O)N[C@H](C(=O)N[C@H](CC(C)C)C(=O)N[C@@H](Cc1c[nH]c2ccccc12)C(=O)N[C@H](CC(C)C)C(=O)N[C@@H](Cc1c[nH]c2ccccc12)C(=O)N[C@@H](C(=O)N[C@@H](Cc1c[nH]c2ccccc12)C(=O)N[C@@H](C(=O)N[C@@H](Cc1c[nH]c2ccccc12)C(=O)NCCO)C(C)C)C(C)C)C(C)C [compound 7119] (For-VGA[dL]A[dD](NHMe)V[dL]W[dL]W[dV]W[dV]W-NHCH2CH2OH)
[1]
  viability: 100%
[2]
  antibacterial activity: -
[3]
  H+/Na+ transport activity normalized against the value of 1 (1.00): 1.15

## CC(C)C[C@@H](NC(=O)[C@H](C)NC(=O)CNC(=O)[C@@H](NC=O)C(C)C)C(=O)N[C@@H](C)C(=O)N[C@@H](C(=O)N[C@H](C(=O)N[C@@H](C(=O)N[C@@H](Cc1c[nH]c2ccccc12)C(=O)N[C@@H](C(=O)N[C@@H](Cc1c[nH]c2ccccc12)C(=O)N[C@H](CC(C)C)C(=O)N[C@@H](Cc1c[nH]c2ccccc12)C(=O)N[C@H](CC(C)C)C(=O)N[C@@H](Cc1c[nH]c2ccccc12)C(=O)NCCO)C(C)C)C(C)C)C(C)C)[C@H](C)O [compound 8755] (For-VGA[dL]A[dT]V[dV]W[dV]W[dL]W[dL]W-NHCH2CH2OH)
[1]
  viability: 67.3%
[2]
  antibacterial activity: -
[3]
  H+/Na+ transport activity normalized against the value of 1 (1.00): 1.10

## CC(C)C[C@@H](NC(=O)[C@H](C)NC(=O)[C@H](NC(=O)[C@H](C)NC(=O)CNC(=O)[C@@H](NC=O)C(C)C)[C@H](C)O)C(=O)N[C@H](C(=O)N[C@H](CC(C)C)C(=O)N[C@@H](Cc1c[nH]c2ccccc12)C(=O)N[C@@H](C(=O)N[C@@H](Cc1c[nH]c2ccccc12)C(=O)N[C@@H](C(=O)N[C@@H](Cc1c[nH]c2ccccc12)C(=O)N[C@H](CC(C)C)C(=O)N[C@@H](Cc1c[nH]c2ccccc12)C(=O)NCCO)C(C)C)[C@H](C)O)C(C)C [compound 5532] (For-VGA[dT]A[dL]V[dL]W[dT]W[dV]W[dL]W-NHCH2CH2OH)
[1]
  viability: 100%
[2]
  antibacterial activity: -
[3]
  H+/Na+ transport activity normalized against the value of 1 (1.00): 1.06
